Experiment: Dissolution speed test in distilled water
Type: physicochemical
Details: 1.5 g solid, particle sizes 425-600 μm, stirred in distilled water at ambient temperature
Method: Dissolution speed tests of the produced semi-crystalline particles were performed by comparison with the dissolution speed of pure crystalline glucose i.e. glucose monohydrate. Two comparative runs were carried out by using an initial mass of 1.5 g of solid inventive semi-crystalline glucose particles vs. crystalline glucose monohydrate, both having particle sizes in the range of 425-600 μm. The solid was stirred in a cylindrical vessel with distilled water at ambient temperature. In both the runs the solid disappearance was detected after 25 s, showing an equal dissolution speed of the produced semi-crystalline glucose in comparison to the crystalline glucose monohydrate.

O.O=C[C@H](O)[C@@H](O)[C@H](O)[C@H](O)CO [crystalline glucose monohydrate, glucose monohydrate]
time until solid disappearance was detected (dissolution speed): 25 s
